The test system of one data set is various organisms. The settings on record: U.S. Pat. No. 4,406,899; amorphous zwitterionic form; cited from earlier work.
Data set [1] is classed as physicochemical. The settings on record: water for injection. How it is done: 375 mg L(+)-Arginine for injection is reconstituted with 4.45 ml of sterile water for injection. The solution is taken up in a syringe and is added to a vial containing lyophilized BMY-28142-2HCl having an activity of 500 mg activity per vial. This solution produces a reconstituted solution suitable for injection which has an activity of about 100 mg BMY-28142 per milliliter.
Control of the amount of water used for dilution permitted the attainment of high concentrations up to 400 mg BMY-28142 per ml.

Data set [2] in a line: Stability of lyophilized amorphous BMY-28142 salts (dry, sealed vials). The data set is classed as physicochemical. The settings on record: for expected shelf life: extrapolated from stability tests; for remaining at 168 h: 1 week; for remaining at 336 h: 2 weeks; for remaining at 672 h: 4 weeks; for remaining at 1008 h: 6 weeks; for remaining at 2184 h: 13 weeks; for remaining at 6888 h: 41 weeks. How it is done:
[…] of BMY-28142 Zi was dissolved qs to 33 ml with 1.9 ml of 1N-HCl and water for injection (pH=2.0).
One ml portion (approximately 65 mg/ml) of the solution were placed into 10cc flint vials which were loosely stoppered with split lyphlization stoppers, frozen to -40° C. and lyphilized at a shelf temperature of 0° C. for 24 hours, then at 24° C. for 24 hours and at 32.2° C. for four hours. The vials were then sealed with aluminum closures and tested for stability at 56°, 45° and 37° C.

[3] abbreviates: dry lyophilized solid, 45° C., second lot, separately prepared.

Structures can show the parent of a compound that is named as a salt.

As a reminder, the fraction remaining is the share of the starting amount still present when the sample was taken.

On to `CO/N=C(\C(=O)N[C@@H]1C(=O)N2C(C(=O)[O-])=C(C[N+]3(C)CCCC3)CS[C@H]12)c1csc(N)n1` [BMY-28142, 7-[α-(2-aminothiazol-4-yl)-α-(Z)-methoxyiminocetamido]-3-[(1-methyl-1-pyrrolidinium)methyl]-3-cephem-4-carboxylate], for which the “antibacterial spectrum of activity” value in the data set with various organisms is “broader spectrum activity than ceftazidime and cefotaxime”. Further, in data set [1], the “concentration attained on reconstitution” value was “up to 400 mg per ml”.
Regarding `CO/N=C(\C(=O)NC1C(=O)N2C(C(=O)[O-])=C(C[N+]3(C)CCCC3)CSC12)c1csc(N)n1` (stereo not drawn) [Di-HCl, 7-[α-(2-aminothiazol-4-yl)-α-(Z)-methoxyiminoacetamido]-3-[(1-methyl-1-pyrrolidinium)methyl]-3-cephem-4-carboxylate], the “stability of lyophile compared with other lyophilized amorphous salts” value in data set [2] is “unexpectedly more stable than the lyophilized, amorphous sesqui-H3 PO4, mono-H2 SO4 and mono-HCl salts”. The figures for the expected shelf life entry in data set [2] (4° C.) and in data set [2] (room temperature) were “at least 24 months” and “at least 12 months”, respectively. In addition, the amount remaining at 168 h in data set [2] (dry lyophilized solid, 45° C.) came to 99.8%; in data set [2] (setting [3]) it was 100%. Moreover, the amount remaining at 336 h in data set [2] (dry lyophilized solid, 45° C.) amounted to 97.2%; in data set [2] (dry lyophilized solid, 56° C., second lot, separately prepared), 91.8%. Moreover, the share remaining at 672 h turned out to be 98.6% in data set [2] (dry lyophilized solid, 37° C.) and 92.5% in data set [2] (setting [3]). Further, the amount remaining at 4320 h in data set [2] (dry lyophilized solid, 6 months, 25° C., second lot, separately prepared) turned out to be 100%. In data set [2] (dry lyophilized solid, 37° C., second lot, separately prepared), the fraction remaining at 1008 h turned out to be 97.2%. In data set [2] (dry lyophilized solid, 8 weeks, 56° C.), the fraction remaining at 1344 h stood at 87%. Besides, the amount remaining at 2184 h in data set [2] (dry lyophilized solid, 37° C.) was 95.5%; in data set [2] (dry lyophilized solid, 45° C.), 91.6%. The fraction remaining at 4368 h in data set [2] (dry lyophilized solid, 26 weeks, 45° C.) was determined as 87.7%. Besides, the fraction remaining at 6888 h was found to be 98.1% in data set [2] (dry lyophilized solid, 25° C.) and 91.7% in data set [2] (dry lyophilized solid, 37° C.). The share remaining at 8736 h in data set [2] (dry lyophilized solid, 52 weeks, 25° C., second lot, separately prepared) is 100%.
Turning to `CO/N=C(\C(=O)NC1C(=O)N2C(C(=O)[O-])=C(C[N+]3(C)CCCC3)CSC12)c1csc(N)n1` (stereo not shown) [Sesqui-PO4], the amount remaining at 168 h in data set [2] (dry lyophilized solid, 56° C.) stood at 75%. Further, the share remaining at 1008 h in data set [2] (dry lyophilized solid, 37° C.) was found to be 79%.
